Reference: ChEMBL document CHEMBL1201862, “PubChem BioAssay data set” (2004)
Active and inactive are the calls of the source.

Key:
cells [1] = format: functional
[2] = microbe, parasite or virus in culture; format: functional; details: Mycobacterium tuberculosis
[3] = molecular target: T1, Ubiquitin-conjugating enzyme E2 N (Homo sapiens, UniProt P61088); format: functional;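 note: Dose-response confirmation in a TR-FRET assay detecting UBC13-driven polyubiquitin chain formation, inhibition measured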
T1 sequence (P61088 whole entry): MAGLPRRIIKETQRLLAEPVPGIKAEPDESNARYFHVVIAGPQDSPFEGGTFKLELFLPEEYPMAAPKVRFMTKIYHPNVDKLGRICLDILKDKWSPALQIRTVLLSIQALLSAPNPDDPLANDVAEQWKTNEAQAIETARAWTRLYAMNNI

Protein RecA = molecular target: T2, Protein RecA (Mycobacterium tuberculosis, UniProt P9WHJ3); assay: Fluorescence Cell-Free Homogeneous Dose Retest to Identify Inhibitors of RecA-Intein Splicing Activity. [Related pubchem assays (depositor defined):AID2097, AID2223, AID489010, AID492950]; format: functional
T2 sequence (P9WHJ3 whole entry): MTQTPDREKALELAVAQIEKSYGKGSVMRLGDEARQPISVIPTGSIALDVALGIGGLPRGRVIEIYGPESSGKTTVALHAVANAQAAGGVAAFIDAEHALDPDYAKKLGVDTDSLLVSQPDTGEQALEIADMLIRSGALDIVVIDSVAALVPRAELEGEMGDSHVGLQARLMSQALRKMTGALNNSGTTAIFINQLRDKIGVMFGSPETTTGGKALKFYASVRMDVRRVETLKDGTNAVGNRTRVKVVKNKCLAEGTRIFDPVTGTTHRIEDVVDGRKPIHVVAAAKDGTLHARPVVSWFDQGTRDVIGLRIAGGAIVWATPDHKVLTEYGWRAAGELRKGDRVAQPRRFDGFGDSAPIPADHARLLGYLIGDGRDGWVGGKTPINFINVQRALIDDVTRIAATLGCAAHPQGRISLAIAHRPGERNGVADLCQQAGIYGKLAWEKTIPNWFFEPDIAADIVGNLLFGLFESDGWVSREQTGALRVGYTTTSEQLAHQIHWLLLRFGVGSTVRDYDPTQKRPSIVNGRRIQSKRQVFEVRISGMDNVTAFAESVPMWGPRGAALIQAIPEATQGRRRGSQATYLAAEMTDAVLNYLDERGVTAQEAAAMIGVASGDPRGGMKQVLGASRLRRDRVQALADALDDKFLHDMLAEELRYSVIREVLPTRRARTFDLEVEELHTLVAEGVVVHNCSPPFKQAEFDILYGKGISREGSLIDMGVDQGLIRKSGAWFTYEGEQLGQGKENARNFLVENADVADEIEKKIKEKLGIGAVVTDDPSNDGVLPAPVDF

Leucine aminopeptidase = molecular target: T3, Leucine aminopeptidase (Plasmodium falciparum 3D7, UniProt Q8IL11); assay: P. falciparum M17LAP inhibitors, primary screen, biochemical, fluorogenic H-Leu-NHMec substrate, 1536-well (AID 1619); format: functional
T3 sequence (Q8IL11 whole entry): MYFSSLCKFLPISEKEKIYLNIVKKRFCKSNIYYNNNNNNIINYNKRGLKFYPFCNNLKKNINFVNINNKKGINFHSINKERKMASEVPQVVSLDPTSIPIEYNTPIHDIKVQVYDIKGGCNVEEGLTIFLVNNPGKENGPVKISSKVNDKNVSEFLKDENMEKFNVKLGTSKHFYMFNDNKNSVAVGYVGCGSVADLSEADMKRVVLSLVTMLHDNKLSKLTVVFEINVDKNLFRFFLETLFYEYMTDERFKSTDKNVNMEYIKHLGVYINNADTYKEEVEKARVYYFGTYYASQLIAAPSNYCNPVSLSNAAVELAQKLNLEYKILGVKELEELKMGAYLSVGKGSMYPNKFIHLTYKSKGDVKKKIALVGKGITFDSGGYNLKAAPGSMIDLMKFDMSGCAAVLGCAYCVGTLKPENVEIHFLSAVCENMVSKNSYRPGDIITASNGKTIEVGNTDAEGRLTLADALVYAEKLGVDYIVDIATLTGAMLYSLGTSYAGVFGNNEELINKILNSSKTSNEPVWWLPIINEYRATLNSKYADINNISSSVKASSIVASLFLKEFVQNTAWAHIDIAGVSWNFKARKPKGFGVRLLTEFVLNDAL

[4] = molecular target: T4, Replicative DNA helicase DnaB (Mycobacterium tuberculosis, UniProt P9WMR3); assay: DnaB intein splicing inhibitors, dose response, biochemical, cell-free fluorescence (AID 449749); format: functional
T4 sequence (P9WMR3 whole entry): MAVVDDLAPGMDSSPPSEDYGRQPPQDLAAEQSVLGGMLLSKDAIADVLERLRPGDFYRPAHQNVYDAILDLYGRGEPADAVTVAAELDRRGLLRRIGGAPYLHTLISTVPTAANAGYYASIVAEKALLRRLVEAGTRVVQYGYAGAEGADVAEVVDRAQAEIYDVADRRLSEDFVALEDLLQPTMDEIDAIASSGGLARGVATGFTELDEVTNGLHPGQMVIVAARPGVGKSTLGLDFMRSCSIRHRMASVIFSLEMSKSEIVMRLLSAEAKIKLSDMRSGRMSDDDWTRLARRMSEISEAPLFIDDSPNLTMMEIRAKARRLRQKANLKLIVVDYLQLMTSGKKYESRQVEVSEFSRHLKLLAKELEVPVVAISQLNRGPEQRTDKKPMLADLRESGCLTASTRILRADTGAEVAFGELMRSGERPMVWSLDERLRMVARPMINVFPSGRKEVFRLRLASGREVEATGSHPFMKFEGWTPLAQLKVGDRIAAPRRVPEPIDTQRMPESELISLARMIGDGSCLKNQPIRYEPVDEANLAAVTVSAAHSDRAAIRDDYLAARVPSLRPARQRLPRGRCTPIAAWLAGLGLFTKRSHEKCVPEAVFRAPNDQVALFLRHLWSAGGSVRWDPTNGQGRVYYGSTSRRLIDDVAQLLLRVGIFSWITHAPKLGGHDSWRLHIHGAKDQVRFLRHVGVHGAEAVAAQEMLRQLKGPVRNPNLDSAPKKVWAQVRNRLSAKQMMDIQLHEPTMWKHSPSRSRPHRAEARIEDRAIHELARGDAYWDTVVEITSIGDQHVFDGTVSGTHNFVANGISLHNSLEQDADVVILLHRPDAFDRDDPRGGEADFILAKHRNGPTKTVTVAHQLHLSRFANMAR

Cytochrome P450 3A4 = Cytochrome P450 3A4 (Homo sapiens, UniProt P08684); details: Potency;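 note: confirmatory qHTS run detecting inhibitors and substrates of CYP3A4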
Vero = assay: cells; format: functional; details: Chlorocebus sabaeus
[5] = HEp-2 cell cytotoxicity, dose response, cytotoxicity control for RSV inhibitor project, HTS (AID 2410); format: functional; details: human respiratory syncytial virus
cells [6] = assay: cells
HEK293 [7] = assay: cells; format: functional, cell-based; details: Homo sapiens
HEK293 [8] = assay: cells; format: functional, cell-based; details: Homo sapiens; remark: listed apart in the source
HEK293 [9] = assay: cells; format: functional, cell-based; details: Homo sapiens; remark: listed apart in the source
[10] = molecular target: Nucleotide-binding oligomerization domain-containing protein 2 (Homo sapiens, UniProt Q9HC29); assay: NOD2 signaling inhibitors, cell-based, luminescence, uHTS, HEK293 (AID 1566); format: functional
HEK293 [11] = assay: NOD1 signaling inhibitors, primary screen, cell-based, luminescence, uHTS (AID 1578); format: functional; details: Homo sapiens
HEK293 [12] = assay: NOD2 signaling inhibitors in MDP-stimulated cells, cell-based, uHTS, luminescence (AID 2001); format: functional; details: Homo sapiens
[13] = molecular target: T5, Voltage-gated N-type calcium channel alpha-1B subunit/Amyloid beta A4 precursor protein-binding family A member 1 (Homo sapiens, UniProt Q00975+Q02410); format: protein assay
[14] = molecular target: T5, Voltage-gated N-type calcium channel alpha-1B subunit/Amyloid beta A4 precursor protein-binding family A member 1; format: protein assay; remark: listed apart in the source
[15] = molecular target: Glyceraldehyde-3-phosphate dehydrogenase (Homo sapiens, UniProt P04406)
Aminopeptidase N = molecular target: T6, Aminopeptidase N (Plasmodium falciparum FcB1/Columbia, UniProt O96935); assay: P. falciparum M1AAP inhibitors, biochemical, fluorogenic H-Leu-NHMec substrate, 1536-well (AID 1445); set-up: species or system Plasmodium falciparum 3D7, 3D7
T6 sequence (O96935 whole entry): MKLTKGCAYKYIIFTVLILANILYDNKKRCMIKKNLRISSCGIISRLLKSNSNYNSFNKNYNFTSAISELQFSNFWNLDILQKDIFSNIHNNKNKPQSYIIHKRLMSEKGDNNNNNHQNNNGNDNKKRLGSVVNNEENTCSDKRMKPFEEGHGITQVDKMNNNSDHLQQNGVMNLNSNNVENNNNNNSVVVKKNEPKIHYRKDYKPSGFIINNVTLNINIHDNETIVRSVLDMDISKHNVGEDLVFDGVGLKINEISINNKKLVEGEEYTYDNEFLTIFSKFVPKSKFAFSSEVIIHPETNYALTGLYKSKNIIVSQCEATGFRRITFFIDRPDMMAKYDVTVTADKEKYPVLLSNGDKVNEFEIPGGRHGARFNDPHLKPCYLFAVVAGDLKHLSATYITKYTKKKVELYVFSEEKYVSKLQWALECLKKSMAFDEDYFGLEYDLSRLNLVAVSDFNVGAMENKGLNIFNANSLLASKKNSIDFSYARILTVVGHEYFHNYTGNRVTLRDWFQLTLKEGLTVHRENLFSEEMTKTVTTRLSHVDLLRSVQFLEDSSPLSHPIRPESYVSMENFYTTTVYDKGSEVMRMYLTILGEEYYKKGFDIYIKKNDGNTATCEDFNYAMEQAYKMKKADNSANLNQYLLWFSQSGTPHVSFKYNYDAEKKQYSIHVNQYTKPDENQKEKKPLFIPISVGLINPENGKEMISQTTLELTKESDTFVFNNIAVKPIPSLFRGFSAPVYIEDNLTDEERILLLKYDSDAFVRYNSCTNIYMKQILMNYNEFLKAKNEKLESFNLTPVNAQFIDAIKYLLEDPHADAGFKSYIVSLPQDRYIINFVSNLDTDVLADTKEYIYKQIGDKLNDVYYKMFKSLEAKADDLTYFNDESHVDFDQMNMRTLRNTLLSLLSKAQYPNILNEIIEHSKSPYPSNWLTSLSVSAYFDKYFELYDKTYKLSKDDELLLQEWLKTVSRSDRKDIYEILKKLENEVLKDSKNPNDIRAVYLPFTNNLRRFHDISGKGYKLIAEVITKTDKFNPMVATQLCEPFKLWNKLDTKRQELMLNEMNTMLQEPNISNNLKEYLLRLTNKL

Chain of Cytochrome P450 3A4 (P08684 whole entry): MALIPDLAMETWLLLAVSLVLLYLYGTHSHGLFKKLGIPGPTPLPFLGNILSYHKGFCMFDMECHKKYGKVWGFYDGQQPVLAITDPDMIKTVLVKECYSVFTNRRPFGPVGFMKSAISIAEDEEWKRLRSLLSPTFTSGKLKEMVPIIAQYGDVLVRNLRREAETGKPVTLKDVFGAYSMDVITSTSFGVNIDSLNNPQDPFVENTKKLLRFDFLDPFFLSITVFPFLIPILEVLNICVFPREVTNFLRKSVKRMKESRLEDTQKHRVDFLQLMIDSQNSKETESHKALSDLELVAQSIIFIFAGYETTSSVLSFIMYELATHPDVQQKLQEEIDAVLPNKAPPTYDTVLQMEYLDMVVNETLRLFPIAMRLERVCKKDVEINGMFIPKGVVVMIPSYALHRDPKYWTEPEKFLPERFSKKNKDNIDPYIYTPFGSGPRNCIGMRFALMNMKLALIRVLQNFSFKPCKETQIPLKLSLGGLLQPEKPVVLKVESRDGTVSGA
Chain of Glyceraldehyde-3-phosphate dehydrogenase (P04406 whole entry): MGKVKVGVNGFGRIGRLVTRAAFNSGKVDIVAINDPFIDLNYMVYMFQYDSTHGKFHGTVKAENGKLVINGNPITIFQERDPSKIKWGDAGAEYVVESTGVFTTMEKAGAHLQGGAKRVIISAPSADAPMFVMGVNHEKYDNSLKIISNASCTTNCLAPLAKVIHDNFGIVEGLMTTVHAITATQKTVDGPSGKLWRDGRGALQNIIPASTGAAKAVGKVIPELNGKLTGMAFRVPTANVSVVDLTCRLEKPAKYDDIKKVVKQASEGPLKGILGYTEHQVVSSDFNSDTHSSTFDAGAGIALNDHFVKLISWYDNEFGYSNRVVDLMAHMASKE
T5 sequence (Q00975 whole entry): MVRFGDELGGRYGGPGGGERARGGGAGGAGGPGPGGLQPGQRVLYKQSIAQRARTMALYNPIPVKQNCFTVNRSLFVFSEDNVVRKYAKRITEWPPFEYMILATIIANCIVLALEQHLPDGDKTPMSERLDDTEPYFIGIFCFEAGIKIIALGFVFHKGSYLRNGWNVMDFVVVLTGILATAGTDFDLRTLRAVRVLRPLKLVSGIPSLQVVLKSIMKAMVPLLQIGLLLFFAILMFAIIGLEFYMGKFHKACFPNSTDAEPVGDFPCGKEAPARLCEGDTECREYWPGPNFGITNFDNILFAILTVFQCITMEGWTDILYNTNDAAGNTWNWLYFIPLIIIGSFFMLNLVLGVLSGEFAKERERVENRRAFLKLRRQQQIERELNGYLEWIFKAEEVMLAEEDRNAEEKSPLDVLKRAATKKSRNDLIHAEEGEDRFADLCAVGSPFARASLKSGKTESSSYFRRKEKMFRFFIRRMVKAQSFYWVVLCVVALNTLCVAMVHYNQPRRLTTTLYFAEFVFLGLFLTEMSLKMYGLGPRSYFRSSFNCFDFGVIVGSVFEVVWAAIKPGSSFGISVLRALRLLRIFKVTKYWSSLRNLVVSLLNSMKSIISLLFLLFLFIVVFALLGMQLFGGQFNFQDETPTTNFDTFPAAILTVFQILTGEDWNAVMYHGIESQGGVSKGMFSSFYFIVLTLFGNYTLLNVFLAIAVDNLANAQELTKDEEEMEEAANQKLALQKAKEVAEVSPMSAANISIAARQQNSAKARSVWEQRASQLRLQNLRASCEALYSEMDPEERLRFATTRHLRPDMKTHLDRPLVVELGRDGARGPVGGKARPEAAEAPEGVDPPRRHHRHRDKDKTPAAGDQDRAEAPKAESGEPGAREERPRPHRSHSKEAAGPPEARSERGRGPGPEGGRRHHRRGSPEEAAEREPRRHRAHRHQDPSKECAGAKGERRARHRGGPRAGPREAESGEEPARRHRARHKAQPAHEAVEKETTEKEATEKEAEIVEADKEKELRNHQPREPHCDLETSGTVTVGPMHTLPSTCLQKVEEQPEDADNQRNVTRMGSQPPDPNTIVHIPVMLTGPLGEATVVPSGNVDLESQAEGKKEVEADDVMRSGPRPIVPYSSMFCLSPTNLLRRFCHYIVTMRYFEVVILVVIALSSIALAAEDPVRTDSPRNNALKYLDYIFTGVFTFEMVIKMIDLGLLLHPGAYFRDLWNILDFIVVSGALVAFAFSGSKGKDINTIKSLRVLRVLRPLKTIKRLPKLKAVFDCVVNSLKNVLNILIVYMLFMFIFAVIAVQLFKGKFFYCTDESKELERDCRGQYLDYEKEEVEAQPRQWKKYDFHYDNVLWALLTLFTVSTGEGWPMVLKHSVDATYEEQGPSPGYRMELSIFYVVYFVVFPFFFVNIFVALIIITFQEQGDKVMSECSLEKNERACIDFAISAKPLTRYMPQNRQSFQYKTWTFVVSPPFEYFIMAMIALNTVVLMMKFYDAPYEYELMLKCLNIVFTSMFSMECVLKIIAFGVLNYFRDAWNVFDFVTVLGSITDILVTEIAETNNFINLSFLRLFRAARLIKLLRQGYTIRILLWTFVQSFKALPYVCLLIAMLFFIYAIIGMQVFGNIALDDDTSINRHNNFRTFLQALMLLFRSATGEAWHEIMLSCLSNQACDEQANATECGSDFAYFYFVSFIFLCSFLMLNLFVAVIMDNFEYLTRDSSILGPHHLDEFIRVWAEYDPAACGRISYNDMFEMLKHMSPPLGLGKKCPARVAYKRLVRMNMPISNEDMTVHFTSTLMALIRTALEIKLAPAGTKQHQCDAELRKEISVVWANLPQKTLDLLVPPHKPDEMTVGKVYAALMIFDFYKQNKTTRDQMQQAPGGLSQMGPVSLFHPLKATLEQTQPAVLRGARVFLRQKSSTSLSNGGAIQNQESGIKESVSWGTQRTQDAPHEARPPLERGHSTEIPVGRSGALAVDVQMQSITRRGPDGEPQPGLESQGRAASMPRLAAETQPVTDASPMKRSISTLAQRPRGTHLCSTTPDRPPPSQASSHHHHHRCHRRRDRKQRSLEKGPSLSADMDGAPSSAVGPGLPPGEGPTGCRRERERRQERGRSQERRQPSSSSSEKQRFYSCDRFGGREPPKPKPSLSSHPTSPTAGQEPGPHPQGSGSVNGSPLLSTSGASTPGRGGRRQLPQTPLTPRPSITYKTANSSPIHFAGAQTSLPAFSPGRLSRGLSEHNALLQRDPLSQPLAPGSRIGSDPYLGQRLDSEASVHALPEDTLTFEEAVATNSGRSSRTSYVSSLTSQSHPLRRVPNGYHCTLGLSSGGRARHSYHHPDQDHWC
T5 sequence (Q02410 whole entry): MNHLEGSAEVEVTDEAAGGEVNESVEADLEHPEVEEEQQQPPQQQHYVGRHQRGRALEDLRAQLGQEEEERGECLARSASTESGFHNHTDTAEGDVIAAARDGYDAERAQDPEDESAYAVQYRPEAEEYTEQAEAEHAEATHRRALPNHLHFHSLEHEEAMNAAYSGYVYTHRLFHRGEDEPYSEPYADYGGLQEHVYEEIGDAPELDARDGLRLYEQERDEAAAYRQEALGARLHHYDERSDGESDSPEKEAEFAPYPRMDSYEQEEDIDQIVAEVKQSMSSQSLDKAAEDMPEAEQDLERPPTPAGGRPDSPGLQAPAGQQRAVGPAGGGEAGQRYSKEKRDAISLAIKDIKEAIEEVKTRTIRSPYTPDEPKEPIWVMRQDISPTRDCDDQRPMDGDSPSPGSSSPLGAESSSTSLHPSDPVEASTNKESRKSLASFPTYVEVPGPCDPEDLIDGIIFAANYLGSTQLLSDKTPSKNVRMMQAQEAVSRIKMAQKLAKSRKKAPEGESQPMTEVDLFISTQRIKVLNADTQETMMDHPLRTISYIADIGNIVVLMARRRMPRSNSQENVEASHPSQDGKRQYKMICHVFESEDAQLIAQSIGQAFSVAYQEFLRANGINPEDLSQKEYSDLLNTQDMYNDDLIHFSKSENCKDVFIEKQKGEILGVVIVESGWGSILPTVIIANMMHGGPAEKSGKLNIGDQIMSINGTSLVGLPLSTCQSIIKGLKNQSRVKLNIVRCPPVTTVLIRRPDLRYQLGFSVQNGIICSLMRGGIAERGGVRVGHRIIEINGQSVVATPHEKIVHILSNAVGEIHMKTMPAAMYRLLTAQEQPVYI
Chain of Nucleotide-binding oligomerization domain-containing protein 2 (Q9HC29 whole entry, the tested form may be a part): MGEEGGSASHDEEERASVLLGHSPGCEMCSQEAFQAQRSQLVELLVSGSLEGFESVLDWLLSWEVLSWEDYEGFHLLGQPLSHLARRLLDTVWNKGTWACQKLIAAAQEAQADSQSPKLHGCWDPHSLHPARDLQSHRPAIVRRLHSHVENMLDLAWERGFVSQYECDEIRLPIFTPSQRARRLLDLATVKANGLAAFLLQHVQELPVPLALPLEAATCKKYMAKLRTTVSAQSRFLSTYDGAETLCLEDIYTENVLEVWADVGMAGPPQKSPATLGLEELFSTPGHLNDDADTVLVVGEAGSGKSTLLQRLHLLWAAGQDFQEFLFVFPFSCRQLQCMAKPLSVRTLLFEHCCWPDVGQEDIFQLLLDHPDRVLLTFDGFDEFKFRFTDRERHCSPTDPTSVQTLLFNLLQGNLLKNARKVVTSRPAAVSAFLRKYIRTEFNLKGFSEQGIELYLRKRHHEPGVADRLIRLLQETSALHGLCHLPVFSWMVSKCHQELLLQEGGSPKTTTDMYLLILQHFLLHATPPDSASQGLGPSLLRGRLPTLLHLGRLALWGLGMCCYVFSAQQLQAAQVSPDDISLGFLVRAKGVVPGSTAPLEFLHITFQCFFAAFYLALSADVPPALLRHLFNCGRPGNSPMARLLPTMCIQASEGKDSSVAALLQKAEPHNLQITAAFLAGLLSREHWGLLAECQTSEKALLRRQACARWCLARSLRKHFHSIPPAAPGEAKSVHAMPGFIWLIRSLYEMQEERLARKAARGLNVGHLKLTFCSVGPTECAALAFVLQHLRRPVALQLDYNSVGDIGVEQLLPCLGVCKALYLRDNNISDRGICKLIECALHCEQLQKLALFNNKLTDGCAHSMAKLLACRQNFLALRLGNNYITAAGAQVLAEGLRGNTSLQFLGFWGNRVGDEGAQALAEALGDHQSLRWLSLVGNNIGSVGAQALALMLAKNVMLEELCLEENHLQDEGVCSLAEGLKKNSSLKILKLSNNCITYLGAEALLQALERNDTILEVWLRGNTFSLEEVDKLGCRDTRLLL

Oc1ccccc1-c1nnc(COc2ccccc2)o1
IC50 (cells [1]): 8.84 µM (active) | CC50 [2]: > 40 µM (active)

COc1ccccc1NC(=O)c1cc(S(=O)(=O)NCc2ccccc2)ccc1F
IC50 [3]: > 20 µM (inactive)

C/C(CC(=O)Nc1cc(C)ccn1)=N\NC(=O)COc1cccc(C)c1
EC50 (Protein RecA): 1.54 µM (active) | IC50 (Leucine aminopeptidase): 90.2 µM (active) | AC50 [4]: 2.37 µM (active)

Cc1cccc2c3c(ccc12)C1=C(C(=O)C3=O)C(C)CO1 (stereo not given)
AC50 (Cytochrome P450 3A4): 12.6 µM (inconclusive)

CCOC(=O)C1=C(COCCN)N=C(C)/C(=C(/O)OC)C1c1ccccc1Cl (stereo not given)
IC50 [3]: > 20 µM (inactive) | CC50 (Vero): > 25 µM (active)

Cc1c(-c2ccc(OCc3ccccc3)cc2)nc2ccccc2c1C(=O)O
CC50 [5]: 42.6 µM (active) | IC50 (cells [6]): 24.7 µM (active)

Cc1cc(C)cc(N(C(=O)c2snc(C(N)=O)c2N)C(C(=O)NCC2CCCO2)c2cccs2)c1 (stereo not given)
IC50 [3]: > 20 µM (inactive)

CCn1c(SCC(=O)Nc2nc(-c3ccccc3)cs2)nnc1-c1ccccc1
IC50 (HEK293 [7]): 6.13 µM (active) | IC50 (HEK293 [8]): 11.3 µM (active) | IC50 (HEK293 [9]): > 20 µM (inactive) | EC50 [10]: 7.91 µM (active) | EC50 (HEK293 [11]): 7.28 µM (active) | IC50 (HEK293 [12]): 5.74 µM (active)

O=c1cc(CO)oc(C(Nc2cccc(C(F)(F)F)c2)c2ccccn2)c1O (stereo not given)
IC50 [3]: > 20 µM (inactive) | IC50 [13]: 8.71 µM (active) | IC50 [14]: 1.09 µM (active)

O=C(O)CCc1nnc(SCC(=O)Nc2cccc(C(F)(F)F)c2)nc1O
IC50 (Leucine aminopeptidase): 6.64 µM (active)

O=C1C(Cl)=C(N2CCN(CCO)CC2)C(=O)N1c1ccc(C(F)(F)F)cc1
IC50 [15]: > 50 µM (inconclusive)

COc1ccccc1CNC(=O)C1CCCN1S(=O)(=O)c1cccc2cccnc12 (stereo not given)
IC50 (cells [6]): 18.6 µM (active)

Nc1nonc1-c1nc2ccccc2n1CC(=O)N/N=C/c1ccc(-c2ccccc2C(=O)O)o1
IC50 (Leucine aminopeptidase): 73.8 µM (active) | IC50 (Aminopeptidase N): 82.7 µM (active)

C=CCSc1nnc(NC(=O)c2nc(SCC)ncc2Cl)s1
IC50 (Leucine aminopeptidase): 10.8 µM (active) | IC50 (Aminopeptidase N): 94.3 µM (active)

COc1ccc(C(=O)CC(=O)c2c(O)cc(OC)cc2OC)cc1
AC50 (Cytochrome P450 3A4): 3.98 µM (inconclusive)

COC(=O)c1cc(Nc2cc(C)c3c(O)cccc3n2)cc(C(=O)OC)c1
CC50 [5]: 44.4 µM (active) | IC50 (cells [6]): > 50 µM (active)

COc1ccc(-n2c(C)cc(/C=C3\C(=N)N4N=C(CC(=O)N5CCOCC5)SC4=NC3=O)c2C)c(OC)c1
CC50 [5]: 11.1 µM (active) | IC50 (cells [6]): 11.7 µM (active)

CC1(C)C(O)CC[C@]2(C)C1CC[C@@]1(C)C2C(=O)C=C2[C@@H]3C[C@@](C)(C(=O)O)CC[C@@]3(C)CCC21C (stereo not given in full)
AC50 (Cytochrome P450 3A4): 39.8 µM (inconclusive)

CCN(CC)C(=O)c1cc(-c2ccc(Cl)cc2Cl)n[nH]1
IC50 [15]: > 10 µM (inconclusive)
